The results in this text go back to patent US11197868B2, “Prevention of preterm birth (PTB) by inhibition of FKBP51” (UNIVERSITY OF SOUTH FLORIDA, priority 2017, dated 2021).

The subject of the experiment is FKBP51. As to the kind of experiment: FKBP51 protein expression in primary term decidual cell cultures by immunoblotting. Conditions: 24 hours. Type of experiment: cell-based. How it is done:
This example describes an analysis of FKBP51 expression in primary term decidual cells (DCs) induced by dexamethasone (DEX) (0.1 μM) or 15dPGJ2 (5 or 20 μM) or DEX+15dPGJ2 (0.1 μM+5 or +20 μM).
Glucocorticoids (e.g. dexamethasone (DEX), medroxyprogesterone acetate) are primary inducers of FKBP51 mRNA and protein expression in decidual cells (DCs). It was determined that both restrained stress-induced preterm birth and fetal growth restriction are blocked in FKBP51 knockout mice compared to WT mice. To determine the potential therapeutic impact of 15-deoxy-Δ12,14-prostaglandin J2 (15dPGJ2) on regulation of dexamethasone-induced FKBP51, primary term DC cultures (n=1) were induced by DEX (0.1 μM), 15dPGJ2 (5 or 20 μM), or DEX+15dPGJ2 (0.1 μM+5 or +20 μM) for 24 hours, and FKBP51 protein levels were then analyzed by immunoblotting, as shown in FIG. 15A.
Background: Immunoblotting shows a protein as a band on a membrane.

As to `CCCCC/C=C/C=C1/C(=O)C=C[C@@H]1C/C=C\CCCC(=O)O` [15dPGJ2, 15-deoxy-Δ12,14-prostaglandin J2], the “decrease of FKBP51 expression compared to control” value was 10% (5 μm 15dPGJ2 alone, term DC cultures (n=1)) and 18% (20 μm 15dPGJ2 alone, term DC cultures (n=1)). Further, the “reduction of DEX-induced FKBP51 expression” value (5 μm 15dPGJ2 combined with DEX 0.1 μM, term DC cultures (n=1)) came to 12%. Also, where the note is “20 μm 15dPGJ2 combined with DEX 0.1 μM, term DC cultures (n=1)”, the “effect on DEX-induced FKBP51 expression” value is “completely blocking DEX-induced FKBP51 expression”.
In the case of `C[C@@H]1C[C@H]2[C@@H]3CCC4=CC(=O)C=C[C@]4(C)[C@@]3(F)[C@@H](O)C[C@]2(C)[C@@]1(O)C(=O)CO` [DEX, dexamethasone], the “increase of FKBP51 expression compared to control” value (DEX 0.1 μM alone, primary term DC cultures (n=1)) stood at 60%.
